Laboratory results published in patent EP1059033A1, “INDUSTRIAL ANTIBACTERIAL/ANTIFUNGAL AGENTS, ALGICIDES AND ANTI-BIOLOGICAL ADHESION AGENTS CONTAINING BENZYLAMINES” (Nissan Chemical Industries, Ltd., priority 1998, dated 1999).
In brackets after ≈: the same amount, converted by molar mass. Read-outs that look alike come from different tables or passages of the source.

Assays:
[1] = test system: Trichophyton mentagrophytes; type: cell-based; details: 72 h, 100 ppm
Method: 31.3 ml of Trichophyton mentagrophytes to be tested was added to 125 ml of a potato dextrose agar culture medium (Nissui Seiyaku Co.). The medium was stirred not to foam the solutions, poured into plates uniformly and solidified.
Thereafter, predetermined amounts of the compounds of the invention were weighted and diluted with acetone to predetermined concentrations.
Paper disks were impregnated with samples containing predetermined amounts of the compounds of the invention, laid on a filter, dried with air and placed on a plate containing test microbe at equal intervals.
Trichophyton mentagrophytes was cultured at 28 °C for 3 days in a thermostatic chamber and the diameter of each inhibiting zone was measured to evaluate the activity of each compound. Symbols in the table mean the followings; • A: Trichophyton mentagrophytes, • ++: strongly inhibiting zone (equal to or more than 21 mm) is observed, • +: inhibiting zone (10 to 20 mm) is observed, • -: no inhibiting zone is observed.

Alternaria alternata = test: Agar dilution MIC (Example 3); type: cell-based; details: 168 h, agar plate, 27 °C, 7 days
Method: (§1) Series of diluted samples (20000, 10000, 5000, 2500, 1250, 625, 313, 156, 78, 39 mg/l) of the compounds of the invention were prepared using dimethylsulfoxide. A sensitive culture medium-N (Nissui Seiyaku Co.) was used for bacteria and a potato dextrose agar culture medium (Nissui Seiyaku Co.) was used for fungi. 0.5 ml of each sample was added to and mixed with 9.5 ml of the culture medium, poured into a Petri dish and solidified to obtain a plate. As a result, the concentration of the compounds of the invention in the agar culture medium were 1000, 500, 250, 125, 62.5, 31.3, 15.6, 7.8, 3.9, 2.0 mg/l. The bacterium inoculated were cultured in a bouillon for the assay of sensitivity (Nissui Seiyaku Co.) at 37 °C for 20 hours, and the fungi were cultured in the potato dextrose agar culture medium (Nissui Seiyaku Co.) for 10 days and then a 10^6 CFU/ml suspension was prepared from each of them. A test bacteria or fungi suspension was streaked on an agar plate containing the compound of the present invention with platinum wire loop, and the agar plate was cultured at 37±1 °C for 18 to 20 hours for bacteria or at 27 °C for 7 days for fungi. A concentration at which no growth was seen was taken as minimum inhibitory concentration (MIC). Symbols in the tables mean the followings; • A: Bacillus subtilis, • B: Trichophyton mentagrophytes, • C: Staphylococcus aureus, • D: Aspergillus niger, • E: Penicillium funiculosum, • F: Candida albicans, • G: Micrococcus luteus, • H: Corynebacterium aquaticum, • I: Chaetomium globosum, • J: Fusarium moniliforme, • K: Saccharomyces cerevisiae, • L: Rhodotorula rubra, • M: Cladosporium cladosporioides, • N: Alternaria alternata.

Aspergillus niger = test: Agar dilution MIC (Example 3); type: cell-based; details: 168 h, agar plate, 27 °C, 7 days
Method: as §1

Chaetomium globosum = test: Agar dilution MIC (Example 3); type: cell-based; details: 168 h, agar plate, 27 °C, 7 days
Method: as §1

[2] = test system: Cladosporium cladosporioides; test: Agar dilution MIC (Example 3); type: cell-based; details: 168 h, agar plate, 27 °C, 7 days
Method: as §1

[3] = test system: Corynebacterium aquaticum; test: Agar dilution MIC (Example 3); type: cell-based; details: Leifsonia aquatica, agar plate, 37±1 °C, 18 to 20 hours
Method: as §1

Fusarium moniliforme = test: Agar dilution MIC (Example 3); type: cell-based; details: Fusarium verticillioides, 168 h, agar plate, 27 °C, 7 days
Method: as §1

Penicillium funiculosum = test: Agar dilution MIC (Example 3); type: cell-based; details: Talaromyces funiculosus, 168 h, agar plate, 27 °C, 7 days
Method: as §1

Rhodotorula rubra = test: Agar dilution MIC (Example 3); type: cell-based; details: 168 h, agar plate, 27 °C, 7 days
Method: as §1

Saccharomyces cerevisiae = test: Agar dilution MIC (Example 3); type: cell-based; details: 168 h, agar plate, 27 °C, 7 days
Method: as §1

[4] = test system: freshwater green alga (Selenastrum capricornutum); test: Inhibition of propagation of freshwater green alga (Example 4); type: cell-based; details: 500ppb, after 72 hours, cell number vs non-treated lot, read-out: Propagation inhibiting rate(%) 500ppb
Method: A predetermined amount of each of the compounds of the invention was dissolved in a culture medium containing 10^5 /ml of a freshwater green alga (Selenastrum capricornutum) at a logarithmic growth phase to prepare samples having a concentration of the compound of the invention in the medium of 500 ppb and 50ppb respectively. The samples were stationary cultured at 23±1 °C for […] under continuous illumination.
After 72 hours, the number of cells was measured using a hemacytometer to obtain propagation rate. The propagation inhibiting rate was calculated from comparison with the non-treated lot.

[5] = test system: freshwater blue-green alga (Microcystis aeruginosa); test: Inhibition of propagation of freshwater algae (Example 6); type: cell-based; details: 500ppb
Method: (§2) A predetermined amount each of the compounds of the invention was dissolved in a culture medium containing 10^5 /ml of a freshwater alga at a logarithmic growth phase to prepare samples having a concentration of the compound of the invention in the medium of 500 ppb and 50 ppb respectively. A shaking culture at 100 rpm was performed for […] under continuous illumination at 20±2 °C for freshwater diatom and at 23±2 °C for other algae.
(§3) After 72 hours and 168 hours, the […] of cells was measured using a hemacytometer to obtain propagation rate. The propagation inhibiting rate was calculated from comparison with the non-treated lot. Symbols in the tables mean the followings; • A: freshwater green alga (Chlorella pyrenoidosa), • B: freshwater blue-green alga (Microcystis aeruginosa), • C: freshwater diatom (Diatoma elongatum), • D: freshwater green alga (Scenedesmus pannonicus).

[6] = test system: freshwater green alga (Chlorella pyrenoidosa); test: as above; type: cell-based; details: Auxenochlorella pyrenoidosa, 500ppb, 168hr, read-out: Propagation inhibiting rate(%) 500ppb 168hr
Method: as §2, §3

[7] = test system: freshwater green alga (Scenedesmus pannonicus); test: as above; type: cell-based; details: Desmodesmus pannonicus, 500ppb
Method: as §2, §3

[8] = test system: Trichophyton mentagrophytes; test: Agar dilution MIC (Example 2); type: cell-based; details: 168 h, agar plate, 27 °C, 7 days
Method: (§4) Series of diluted samples (20000, 10000, 5000, 2500, 2000, 1250, 625, 313, 156, 78, 39, 20, 10, 5, 2.5, 1.25 mg/l) of the compounds of the invention were prepared using dimethylsulfoxide. A sensitive culture medium-N (Nissui Seiyaku Co.) was used for bacteria and a potato dextrose agar culture medium (Nissui Seiyaku Co.) was used for fungi. 0.5 ml of each sample was added to and mixed with 9.5 ml of the culture medium, poured into a Petri dish and solidified to obtain a plate. As a result, the concentration of the compounds of the invention in the agar culture medium were 1000, 500, 250, 125, 100, 62.5, 31.3, 15.6, 7.8, 3.9, 2.0, 1.0, 0.5, 0.25, 0.125, 0.062 mg/l. The bacterium inoculated were cultured in a bouillon for the assay of sensitivity (Nissui Seiyaku Co.) at 37 °C for 20 hours, and the fungi were cultured in the potato dextrose agar culture medium (Nissui Seiyaku Co.) for 10 days and then a 10^6 CFU/ml suspension was prepared from each of them. A test bacteria or fungi suspension was streaked on an agar plate containing the compound of the present invention with platinum wire loop, and the agar plate was cultured at 37±1 °C for 18 to 20 hours for bacteria or at 27 °C for 7 days for fungi. A concentration at which no growth was seen was taken as minimum inhibitory concentration [MIC(mg/l)]. Symbols in the table mean the followings; • A: Bacillus subtilis, • B: Trichophyton mentagrophytes, • C: Rhodotorula mucilaginosa.

[9] = test system: Trichophyton mentagrophytes; test: Agar dilution MIC (Example 3); type: cell-based; details: 168 h, agar plate, 27 °C, 7 days
Method: as §1

[10] = test system: seawater diatom [Nitzschia closterium]; test: Inhibition of propagation of seawater diatom (Example 5); type: cell-based; details: Cylindrotheca closterium, 72 h, read-out: Propagation inhibiting rate(%) 500ppb
Method: A predetermined amount of each of the compounds of the invention was dissolved in culture media containing 10^5 /ml of a seawater diatom [Nitzschia closterium] at a logarithmic growth phase to prepare samples having a concentration of the compound in the medium of 500 ppb. The samples were stationary cultured at 22±1 °C for […] under continuous illumination.
After 72 hours, cells were collected by centrifugation and disrupted by addition of methanol to extract chlorophyll, and the amount of chlorophyll was measured from absorbance using a spectrophotometer to obtain propagation rate. The propagation inhibiting rate was calculated from comparison with the non-treated lot.

blue mussel = test: Antifouling (adhesion repellent) activity against blue mussel (Example 7); type: in vivo, Mytilus edulis; design: key: ++: not adhered in the zone and strong repellent effect is observed; +: adhesion in zone is observed but most of them adhered out of zone and repellent effect is observed; -: adhered in and out of zone alike and repellent effect is not observed; details: seawater, dark, 3 hours
Method: The compound of the invention was completely dissolved in 1 ml of acetone and the resulting solution was uniformly applied to a 4 cm-diameter zone drawn on a test plate. A zone coated with acetone alone as blank and zones coated with 1.0 mg and 0.5 mg of copper sulfate as a comparison chemical were also prepared. After drying, four blue mussel having a shell length of about 2 to 2.5 cm were adhered around each zone using a rubber piece as a spacer. The thus prepared test plate was immersed in a water tank to which seawater ran and left to stand in the dark for 3 hours.
The adhesion controlling effect (adhesion repellent activity) was obtained from comparison with copper sulfate used as a comparison chemical.
The evaluation of adhesion repellent activity was based on "Evaluation method of adhesion repellent substance to marine adhesion organisms using Mytilus edulis" written by Kazuo Ina and Hideo Etoh (Chemistry and Biology, vol.28 (No.2), pp.132-138, 1990).
Symbols in the table mean the followings; • ++: not adhered in the zone and strong repellent effect is observed, • +: adhesion in zone is observed but most of them adhered out of zone and repellent effect is observed, • -: adhered in and out of zone alike and repellent effect is not observed.

Bacillus subtilis = test: Agar dilution MIC (Example 2); type: cell-based; details: agar plate, 37±1 °C, 18 to 20 hours
Method: as §4

Rhodotorula mucilaginosa = test: Agar dilution MIC (Example 2); type: cell-based; details: 168 h, agar plate, 27 °C, 7 days
Method: as §4

[11] = 72hr, read-out: Propagation inhibiting rate (%) 500ppb 72hr
[12] = 168hr, read-out: Propagation inhibiting rate (%) 500ppb 168hr

Compound | Judgment (Target bacteria: A) [1] | MIC (Alternaria alternata) [µg/mL] | MIC (Aspergillus niger) [µg/mL] | MIC (Chaetomium globosum) [µg/mL] | MIC [2] [µg/mL] | MIC [3] [µg/mL] | MIC (Fusarium moniliforme) [µg/mL] | MIC (Penicillium funiculosum) [µg/mL] | MIC (Rhodotorula rubra) [µg/mL] | MIC (Saccharomyces cerevisiae) [µg/mL] | inhibition at 0.5 ppm [4] [%] | inhibition at 0.5 ppm [6] [%] | inhibition at 0.5 ppm [7, 11] [%] | inhibition at 0.5 ppm [7, 12] [%] | MIC [8] [µg/mL] | also measured
Cc1cccc(C)c1CN(C)Cc1ccc(C(C)(C)C)cc1 [Compound 5] | ++ (strongly inhibiting zone (equal to or more than 21 mm) is observed) | 125 (≈ 423 µM) | < 2 | 15.6 (≈ 52.8 µM) | 31.3 (≈ 106 µM) | 7.8 (≈ 26.4 µM) | 7.8 (≈ 26.4 µM) | 15.6 (≈ 52.8 µM) | 63 (≈ 213 µM) | 63 (≈ 213 µM) | 75 | 62 | 76 | 78 |  | inhibition at 0.5 ppm ([5]; 72hr, read-out: Propagation inhibiting rate(%) 500ppb 72hr): 56%; inhibition at 0.5 ppm ([5]; 168hr, read-out: Propagation inhibiting rate(%) 500ppb 168hr): 62%
CN(Cc1ccc(C(C)(C)C)cc1)C1CCc2ccccc21 (stereo not drawn) [Compound 7] | ++ (strongly inhibiting zone (equal to or more than 21 mm) is observed) |  |  |  |  |  |  |  |  |  | 62 |  | 92 | 99 | 1 (≈ 3.41 µM) | MIC [9]: < 2 µg/mL; inhibition at 0.5 ppm [10]: 91%; Judgment (adhesion repellent activity against blue mussel) (blue mussel; Amount of chemical 2.0 mg on 4 cm-diameter zone): ++
Cc1ccc(C)c(CN(C)Cc2ccc(C(C)(C)C)cc2)c1 [Compound 8] | ++ (strongly inhibiting zone (equal to or more than 21 mm) is observed) |  | 7.8 (≈ 26.4 µM) | 63 (≈ 213 µM) | 63 (≈ 213 µM) | 31.3 (≈ 106 µM) |  | 31.3 (≈ 106 µM) | 125 (≈ 423 µM) | 125 (≈ 423 µM) | 90 | 86 | 72 | 86 |  | 
CN(Cc1ccc(C(C)(C)C)cc1)Cc1c(Cl)cccc1Cl [Compound 19] |  |  |  |  |  |  |  |  |  |  |  |  |  |  | 0.25 (≈ 0.743 µM) | MIC (Bacillus subtilis): 15.6 µg/mL (≈ 46.4 µM)
Cc1cc(C)c(CN(C)Cc2ccc(C(C)(C)C)cc2)c(C)c1 [Compound 20] |  | 15.6 (≈ 50.4 µM) | 7.8 (≈ 25.2 µM) | 31.3 (≈ 101 µM) |  | 7.8 (≈ 25.2 µM) | 31.3 (≈ 101 µM) | 15.6 (≈ 50.4 µM) | 31.3 (≈ 101 µM) | 15.6 (≈ 50.4 µM) | 63 |  |  |  | 2 (≈ 6.46 µM) | MIC (Rhodotorula mucilaginosa): 15.6 µg/mL (≈ 50.4 µM)
O=S(=O)([O-])[O-].[Cu+2] [Copper sulfate] |  |  |  |  |  |  |  |  |  |  |  |  |  |  |  | Judgment (adhesion repellent activity against blue mussel) (blue mussel; Amount of chemical 0.5 mg on 4 cm-diameter zone): -; Judgment (adhesion repellent activity against blue mussel) (blue mussel; Amount of chemical 1.0 mg on 4 cm-diameter zone): +
